Reference: ChEMBL document CHEMBL4118151, “Highly potent activity of isopulegol-derived substituted octahydro-2H-chromen-4-ols against influenza A and B viruses” (Bioorg Med Chem Lett, 2018)

What was measured:
[1] = test system: Influenza A virus; experiment: Antiviral activity against amantadine/rimantadine-resistant Influenza A virus (A/Puerto Rico/8/34(H1N1)) infected in MDCK cells assessed as inhibition of viral replication after 48 hrs by hemagglutination test; format: functional, organism-based; conditions: A/Puerto Rico/8/1934(H1N1)
[2] = Selectivity index, ratio of CC50 for MDCK cells to IC50 for amantadine/rimantadine-resistant Influenza A virus (A/Puerto Rico/8/34(H1N1)); format: toxicity; conditions: dog, read-out: Ratio CC50/IC50
[3] = test system: Influenza A virus; experiment: Antiviral activity against osaltamivir-resistant Influenza A virus (A/Vladivostok/02/09(H1N1)) infected in MDCK cells assessed as inhibition of viral replication after 48 hrs by hemagglutination test; format: functional, organism-based
[4] = test system: Influenza A virus; experiment: Antiviral activity against amantadine/rimantadine-resistant Influenza A virus (A/California/07/09(H1N1)) infected in MDCK cells assessed as inhibition of viral replication after 48 hrs by hemagglutination test; format: functional, organism-based; conditions: A/California/07/2009(H1N1)
[5] = Selectivity index, ratio of CC50 for MDCK cells to IC50 for amantadine/rimantadine-resistant Influenza A virus (A/California/07/09(H1N1)); format: toxicity; conditions: dog, read-out: Ratio CC50/IC50
[6] = test system: Influenza B virus; experiment: Antiviral activity against amantadine/rimantadine-resistant Influenza B virus (B/Florida/4/06(Yamagata-like)) infected in MDCK cells assessed as inhibition of viral replication after 48 hrs by hemagglutination test; format: functional, organism-based, Influenza B virus (B/Florida/4/2006)
[7] = Selectivity index, ratio of CC50 for MDCK cells to IC50 for osaltamivir-resistant Influenza A virus (A/Vladivostok/02/09(H1N1)); format: toxicity; conditions: dog, read-out: Ratio CC50/IC50
[8] = Selectivity index, ratio of CC50 for MDCK cells to IC50 for amantadine/rimantadine-resistant Influenza B virus (B/Florida/4/06/Yamagata-like); format: toxicity; conditions: dog, read-out: Ratio CC50/IC50

| Structure (SMILES) | IC50 [1] [µM] | selectivity ratio [2] | further results |
| --- | --- | --- | --- |
| C[C@@H]1CC[C@@H]2[C@H](C1)OC1(CCCC1)C[C@@]2(C)O | 8.4 | 96 | – |
| C[C@@H]1CC[C@@H]2[C@H](C1)OC(C)(C)CC2(C)O (some centres undefined) | 17 | 4 | – |
| C[C@@H]1CC[C@@H]2[C@@H](C1)O[C@@H](C1CCCCC1)C[C@@]2(C)O | 12.4 | 2 | – |
| C[C@@H]1CC[C@@H]2[C@H](C1)OC1(CCCCCC1)C[C@@]2(C)O | 82.7 | 3 | – |
| CCCC1(CCC)C[C@@](C)(O)[C@@H]2CC[C@@H](C)C[C@@H]2O1 | 45.5 | 3 | – |
| C[C@@H]1CC[C@@H]2[C@H](C1)OC1(CCCCCCC1)C[C@@]2(C)O | > 118 | – | – |
| C[C@@H]1CC[C@@H]2[C@H](C1)OC1(CCCCC1)C[C@@]2(C)O | 18.3 | 34 | – |
| C[C@@H]1CC[C@@H]2[C@@H](C1)OC(C)(C)C[C@]2(C)O | 70.8 | 12 | – |
| CCC[C@H]1C[C@@](C)(O)[C@@H]2CC[C@@H](C)C[C@H]2O1 | > 1330 | – | – |
| CCC1(CC)C[C@@](C)(O)[C@@H]2CC[C@@H](C)C[C@@H]2O1 | 19.6 | 10 | – |
| C[C@@H]1CC[C@@H]2[C@@H](C1)OC(C)(C)C[C@@]2(C)O | 7.5 | – | IC50 [3]: > 1420 µM; IC50 [4]: 0.9 µM; selectivity ratio [5]: 1570; IC50 [6]: 17 µM; selectivity ratio [7]: 1; selectivity ratio [8]: 83 |
| CC(C)=O [ACETONE] | 7.5 | – | – |
| NC(=O)c1ncn([C@@H]2O[C@H](CO)[C@@H](O)[C@H]2O)n1 [RIBAVIRIN] | 44 | – | – |
| CC(N)C12CC3CC(CC(C3)C1)C2 (centres undefined) [RIMANTADINE] | 72 | 4 | – |
